{"source": "patent US20100015249A1", "about": "“Antitumor agent containing 6'-amidino-2'-naphthyl 4-guanidinobenzoate or salt thereof” (priority 2005, published 2010)", "key": {"[1]": {"test_system": "jBid", "experiment": "Western blot of Bid / jBid", "format": "cell-based, human", "conditions": "MDAPanc-28, FUT 80 μg/ml, 0 to 24 hours", "method": "The present inventors examined whether apoptosis signaling cascade is triggered with the elevation of TNFRI expression induced by FUT treatment, using caspase 8 as an indicator. Cytoplasmic fraction was prepared from the human pancreas cancer cell line […]-28 treated with various concentrations of FUT for 24 hours. Western blot was performed and subjected to the detection with anti-caspase 8 antibody (Santa Cruz Biotechnology) (FIG. 6-a). Western blot was performed to examine temporal changes in the expression of caspase 8, p-FADD, Bid and jBid under a constant concentration of FUT (80 μg/ml) at short intervals from 0 to 24 hours of treatment (FIGS. 6-b, 6-c and 6-d). Anti-FADD antibody was obtained from Santa Cruz Biotechnology and anti-Bid antibody was obtained from BD Pharmingen."}, "[2]": {"test_system": "human pancreas cancer cell line MDAPanc-28", "experiment": "Apoptosis ratio by flow cytometry (propidium iodide, FACScan)", "format": "cell-based", "conditions": "MDAPanc-28, pretreatment with the agent 3 hours then gemcitabine 48 hours, compared with gemcitabine alone", "method": "The present inventors next examined the effect of these agents on apoptosis induction in the human pancreas cancer cell line MDAPanc-28. […] Flow cytometry was used to confirm the occurrence of apoptosis. Cells were collected after treatments with the agents and fixed in 70% ethanol at −20° C. for 24 hours. After rinsing with PBS, cells were suspended in PBS containing 50 μg/ml of propium iodide, 0.1% Triton X-100, 0.1% sodium citrate and 1 μg/ml of DNase free RNase. The samples were incubated at room temperature for 30 minutes and the amount of DNA was measured by using FACScan."}, "[3]": {"test_system": "human pancreas cancer cell line MDAPanc-28", "experiment": "Matrigel infiltration assay", "format": "cell-based", "conditions": "MDAPanc-28 pretreated with 80 μg/ml FUT for 24 hours, 22-hour incubation in matrigel-coated chamber", "method": "A matrigel infiltration assay was performed to examine an inhibitory effect on infiltration in the human pancreas cancer cell line MDAPanc-28 by FUT treatment. Cells treated with 80 μg/ml of FUT for 24 hours and untreated cells were respectively inoculated to a matrigel-coated chamber at a concentration of 20000 cells per well for a 22-hour incubation at 37° C. either in the presence or absence of 80 μg/ml of FUT. The numbers of infiltrated cells were then counted under the microscope after Wright-Giemsa staining according to the method generally known."}, "[4]": {"test_system": "human pancreas cancer cell line MDAPanc-28", "experiment": "DNA fragmentation assay (apoptosis)", "format": "cell-based", "conditions": "MDAPanc-28", "method": "After adding 1000 U/ml of protease K, the sample was further incubated for 5 hours at 50° C. After extracting DNA with phenol/chloroform/isoamyl alcohol, isopropanol and ammonium acetate were added to the collected water-soluble fractions in order to collect precipitates. The precipitates were then rinsed with 70% ethanol and dissolved in Tris-EDTA buffer. Electrophoresis was performed on a 2% agarose gel and DNA bands were confirmed by using ethidium bromide. The present inventors examined the concomitant effect of FUT and TNF-α on apoptosis in cancer cells. After treatment with TNF-α for 24 hours, the human pancreas cancer cell line […]-28 was further cultured for 24 hours with various concentrations of FUT being added. Cells prepared were then subjected to an MTT assay according to the method generally known to calculate the cell survival rates. Also, DNA was extracted to perform a DNA fragmentation assay. More specifically, with regard to the MTT assay, each well was seeded with 2000 cells per 100 μl of culture medium in a 96-well microtiterplate, followed by the above mentioned treatment. […] The absorbance of the samples was measured at 570 nm by using a microplate reader. […] Two independent experiments were performed, and the average was calculated. […]"}, "[5]": {"test_system": "PEA3", "experiment": "PEA3 expression after FUT treatment", "format": "cell-based, human", "conditions": "MDAPanc-28, over time"}, "[6]": {"test_system": "NF-κB", "experiment": "TNF-α-activated NF-κB after FUT treatment", "format": "cell-based, human", "conditions": "MDAPanc-28, FUT 80 μg/ml, TNF-α 5 ng/ml", "method": "After the following treatment on the human pancreas cancer cell line […]-28, plasmatic compartment was prepared and Western blot was performed to examine the expression of phosphorylated FADD, caspase 8, NF-κB and IκBα. […] The same was true for IκBα expression (FIG. 7-c)."}, "[7]": {"test_system": "MMP-2", "experiment": "Western blot of MMP-2 expression", "format": "cell-based, human", "conditions": "MDAPanc-28 cytoplasmic fraction, 0 or 80 μg/ml FUT", "method": "Cytoplasmic fraction was prepared from the human pancreas cancer cell line […]-28 treated with either 0 μg/ml or 80 μg/ml of FUT. Western blot was performed for the obtained cytoplasmic proteins to examine MMP-2 and MMP-9 expression. More specifically, the experiment was performed by the method described in Example 2. Rabbit polyclonal anti-MMP-2 antibody, goat polyclonal anti-MMP-9 antibody and mouse anti-B-actin antibody (Santa Cruz Biotechnology, Inc.) were used for detection."}, "[8]": {"test_system": "human pancreas cancer cell line MDAPanc-28", "experiment": "MTT assay of cell survival rate / living cell ratio", "format": "cell-based", "method": "The present inventors examined the concomitant effect of FUT and TNF-α on apoptosis in cancer cells. After treatment with TNF-α for 24 hours, the human pancreas cancer cell line MDAPanc-28 was further cultured for 24 hours with various concentrations of FUT being added. Cells prepared were then subjected to an MTT assay according to the method generally known to calculate the cell survival rates. Also, DNA was extracted to perform a DNA fragmentation assay.\nMore specifically, with regard to the MTT assay, each well was seeded with 2000 cells per 100 μl of culture medium in a 96-well microtiterplate, followed by the above mentioned treatment. After plate centrifugation, each well received 5 mg/ml of MTT (Sigma) PBS solution instead of culture medium and was incubated for 4 hours at 37° C. After removing the supernatant, 100 μl of DMSO were added to dissolve the cells. The absorbance of the samples was measured at 570 nm by using a microplate reader. 8 wells were subjected to the same condition in this experiment. Two independent experiments were performed, and the average was calculated.\nHowever, the agents are of different types with different mechanisms of action. Therefore, the present inventors examined the effect of each agent on the living cell ratio in the human pancreas cancer cell line MDAPanc-28 singularly. After being treated with each agent for 24 hours and 48 hours, the human pancreas cancer cell line MDAPanc-28 was subjected to a MTT assay. The MTT assay was performed by the method described in Example 9."}, "[9]": {"test_system": "Murine fiber cells", "experiment": "Effect on survival rate of normal cells", "format": "cell-based", "conditions": "80 μg/ml", "source_text": "Therefore, the present inventors next examined the effect of FUT treatment on normal cells. Murine fiber cells were used as normal cells."}}, "data": [{"smiles": "N=C(N)c1ccc2cc(OC(=O)c3ccc(N=C(N)N)cc3)ccc2c1", "note": "[FUT, 6-amidino-2-naphthyl p-guanidinobenzoate dimethanesulfonate]", "values": [{"measurement": "expression of JBid, the degradation product of Bid", "setting": "[1]", "value": "overtime increase in the expression of JBid"}, {"measurement": "apoptosis induction in combination with gemcitabine", "setting": "[2]", "value": "further enhanced the effect on apoptosis induction"}, {"measurement": "infiltration (number of infiltrated cells)", "setting": "[3]", "value": "significant inhibitory effect on infiltration"}, {"measurement": "concentration at which DNAs were fragmented (apoptosis induction)", "setting": "[4]", "value": "≥ 40", "unit": "µg/mL"}, {"measurement": "PEA3 expression", "setting": "[5]", "value": "increased PEA3 expression overtime"}, {"measurement": "TNF-α-activated NF-κB", "setting": "[6]", "value": "inhibits TNF-α-activated NF-κB"}, {"measurement": "MMP-2 expression", "setting": "[7]", "value": "inhibited by FUT in a concentration-dependent manner"}, {"measurement": "cell survival rate", "setting": "[8]; MDAPanc-28, TNF-α 24 hours then various concentrations of FUT 24 hours, MTT, compared with control cells", "value": "significantly declined"}, {"measurement": "speed of inhibitory effect on proliferation", "setting": "[8]; MDAPanc-28, comparison of FUT with PS1145", "value": "more rapid inhibitory effect than PS1145"}, {"measurement": "cell proliferation / living cell ratio", "setting": "[8]; MDAPanc-28, single agent, 24 hours and 48 hours, MTT", "value": "inhibited in a FUT concentration-dependent manner"}, {"measurement": "living cell ratio at 48 hours compared to 24 hours", "setting": "[8]; MDAPanc-28, single agent, MTT", "value": "slightly increased at 48 hours compared to the ratio at 24 hours"}, {"measurement": "cell survival rate of normal cells", "setting": "[9]", "value": "had no effect on cell survival rate"}]}]}
